Reference: patent US9497970B2, “Pesticide compounds” (priority 2013, dated 2016)
Where two headings read alike, the source gives them in different places.

How the values were obtained:
Format in all cases: in vivo
[1] = tested on: Green Peach Aphid (Myzus persicae); assay: B.9 Green Peach Aphid (Myzus persicae), sprayed bell pepper plants; settings: 120 h, infested bell pepper plants sprayed, after 5 days, in comparison with untreated controls
Procedure, shortened: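 Bell pepper plants at first true-leaf stage, infested with 30-50 aphids each, were sprayed electrostatically with compound in 50% acetone:water plus 0.01% nonionic surfactant. Held at about 25° C, 24-hr light, 20-40% RH. Mortality versus untreated controls scored after 5 days.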

[2] = tested on: Vetch Aphid (Megoura viciae); assay: B.8 Vetch Aphid (Megoura viciae), broad bean leaf disks; settings: foliar, 120 h
Method: B.8 Vetch Aphid (Megoura viciae)
For evaluating control of vetch aphid (Megoura viciae) through contact or systemic means the test unit consisted of 24-well-microtiter plates containing broad bean leaf disks.
The compounds were formulated using a solution containing 75% v/v water and 25% v/v DMSO. Different concentrations of formulated compounds were sprayed onto the leaf disks at 2.5 μl, using a custom built micro atomizer, at two replications.
After application, the leaf disks were air-dried and 5-8 adult aphids placed on the leaf disks inside the microtiter plate wells. The aphids were then allowed to suck on the treated leaf disks and incubated at about 23±1° C. and about 50±5% relative humidity for 5 days. Aphid mortality and fecundity was then visually assessed.

[3] = tested on: Orchid thrips (dichromothrips corbetti); assay: B.12 Orchid thrips (dichromothrips corbetti), floral-immersion technique; settings: adult thrips on dipped orchid petals, 72 hours after treatment, in comparison with untreated controls
Procedure, shortened: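 Whole orchid flower petals were dipped in compound in 1:1 acetone:water with 0.01% v/v Kinetic HV, dried, and enclosed with about 20 adult thrips. They were held under continuous light at about 28° C. Live thrips were counted and percent mortality recorded at 72 hours.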

[4] = tested on: Diamond Back Moth (Plutella xylostella); assay: B.1 Diamond Back Moth (Plutella xylostella), cabbage leaf dip; settings: foliar
Procedure, shortened: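 Cabbage leaves dipped in compound in 1:1 water:acetone with 0.01% Kinetic HV surfactant, air-dried, then infested with ten 3rd-instar larvae on moist filter paper. Mortality scored at 72 h after treatment; feeding damage rated on a 0-100% scale.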

[5] = tested on: Yellow Fever Mosquito (Aedes aegypti); assay: whole plant or invertebrate; settings: 48 h, freshly hatched larvae in tap water, 2 days, in comparison with untreated controls, read-out: mortality (larval)
Procedure, shortened: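 Freshly hatched A. aegypti larvae, 5–15 per well, were held in 200 μl tap water. Compounds formulated in 75:25 water:DMSO were sprayed at various concentrations, 2.5 μl per well by micro-atomizer, in two replicates.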

[6] = tested on: Southern Armyworm (Spodoptera eridania), 2nd Instar Larvae; assay: B.10 Southern Armyworm (Spodoptera eridania), 2nd Instar Larvae, sprayed lima bean plants; settings: 96 h
Procedure, shortened: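 Lima bean plants at 1st true leaf stage sprayed electrostatically with compound in 50% acetone:50% water plus 0.01% nonionic surfactant, then infested with about 10 to 11 2nd instar larvae. Mortality and reduced feeding assessed 4 days after treatment at about 25° C versus untreated plants.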

[7] = tested on: Boll Weevil (Anthonomus grandis); assay: B.3 Boll Weevil (Anthonomus grandis), microtiter plate insect diet; settings: 120 h, read-out: mortality (egg and larval)
Procedure, shortened: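 Compounds in 25% DMSO/water sprayed at several concentrations onto insect diet in microtiter wells holding 5–10 A. grandis eggs, two replicates. Plates kept 5 days at about 25±1 °C and 75±5% RH. Egg and larval mortality scored visually.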

[8] = tested on: Tobacco Budworm (Heliothis virescens); assay: B.7 Tobacco Budworm (Heliothis virescens) I, microtiter plate insect diet; settings: 120 h, read-out: mortality (egg and larval)
Procedure, shortened: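 96-well plates with insect diet and 15-25 H. virescens eggs; compounds in 75% water/25% DMSO sprayed onto diet at several concentrations, two replicates. Plates held at about 28±1° C. and 80±5% relative humidity for 5 days, then egg and larval mortality scored visually.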

[9] = tested on: Mediterranean Fruitfly (Ceratitis capitata); assay: B.6 Mediterranean Fruitfly (Ceratitis capitata), microtiter plate insect diet; settings: 120 h, read-out: mortality (egg and larval)
Procedure, shortened: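 Insect diet with 50-80 C. capitata eggs sprayed with compounds formulated in 75% water/25% DMSO, at different concentrations, two replications. Incubation at about 28±1° C and 80±5% relative humidity for 5 days, then egg and larval mortality assessed visually.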

[10] = tested on: Cowpea Aphid (aphis craccivora); assay: B.4 Cowpea Aphid (aphis craccivora), sprayed potted cowpea plants; settings: after 72 hours, in comparison with untreated controls
Method: B.4 Cowpea Aphid (aphis craccivora)
The active compound is dissolved at the desired concentration in a mixture of 1:1 (vol:vol) distilled water:acetone. Surfactant (Kinetic HV) is added at a rate of 0.01% (vol/vol). The test solution is prepared at the day of use.
Potted cowpea plants were colonized with approximately 50-100 aphids of various stages by manually transferring a leaf tissue cut from infested plant 24 hours before application. Plants were sprayed after the pest population has been recorded. Treated plants are maintained on light carts at about 28° C. Percent mortality was assessed after 72 hours.

[11] = tested on: Orchid thrips (dichromothrips corbetti); assay: B.2 Orchid thrips (dichromothrips corbetti), floral-immersion technique; settings: adult thrips on dipped orchid petals, 72 hours after treatment, in comparison with untreated controls
Method: B.2 Orchid thrips (dichromothrips corbetti)
Dichromothrips corbetti adults used for bioassay were obtained from a colony maintained continuously under laboratory conditions. For testing purposes, the test compound is diluted in a 1:1 mixture of acetone:water (vol:vol), plus Kinetic HV at a rate of 0.01% v/v.
Thrips potency of each compound was evaluated by using a floral-immersion technique. All petals of individual, intact orchid flowers were dipped into treatment solution and allowed to dry in Petri dishes. Treated petals were placed into individual resealable plastic along with about 20 adult thrips. All test arenas were held under continuous light and a temperature of about 28° C. for duration of the assay. After 3 days, the numbers of live thrips were counted on each petal. The percent mortality was recorded 72 hours after treatment.

[12] = tested on: Silverleaf Whitefly (Bemisia argentifoli); assay: B.5 Silverleaf Whitefly (Bemisia argentifoli), sprayed cotton plants; settings: 72 h, whitefly adults on sprayed cotton plants, 3 days after treatment, in comparison with untreated controls
Method: B.5 Silverleaf Whitefly (Bemisia argentifoli)
The active compounds were formulated by a Tecan liquid handler in 100% cyclohexanone as a 10,000 ppm solution supplied in tubes. The 10,000 ppm solution was serially diluted in 100% cyclohexanone to make interim solutions. These served as stock solutions for which final dilutions were made by the Tecan in 50% acetone:50% water (v/v) into 5 or 10 ml glass vials. A nonionic surfactant (Kinetic®) was included in the solution at a volume of 0.01% (v/v). The vials were then inserted into an automated electrostatic sprayer equipped with an atomizing nozzle for application to plants/insects.
Cotton plants at the cotyledon stage (one plant per pot) were sprayed by an automated electrostatic plant sprayer equipped with an atomizing spray nozzle. The plants were dried in the sprayer fume hood and then removed from the sprayer. Each pot was placed into a plastic cup and about 10 to 12 whitefly adults (approximately 3-5 days old) were introduced. The insects were collected using an aspirator and a nontoxic Tygon® tubing connected to a barrier pipette tip. The tip, containing the collected insects, was then gently inserted into the soil containing the treated plant, allowing insects to crawl out of the tip to reach the foliage for feeding. Cups were covered with a reusable screened lid. Test plants were maintained in a growth room at about 25° C. and about 20-40% relative humidity for 3 days, avoiding direct exposure to fluorescent light (24 hour photoperiod) to prevent trapping of heat inside the cup. Mortality was assessed 3 days after treatment, compared to untreated control plants.

[13] = 2500 ppm, adult aphids on sprayed leaf disks, 5 days, in comparison with untreated controls, read-out: mortality
[14] = 500 ppm, 3rd instar larvae on dipped cabbage leaves, 72 hours after treatment, in comparison with untreated controls, read-out: mortality
[15] = 300 ppm, larvae on sprayed lima bean plants, 4 days after treatment, in comparison with untreated controls, read-out: mortality
[16] = 800 ppm, sprayed onto insect diet, 5 days, in comparison with untreated controls

O=[N+]([O-])c1ccccc1NC(=S)N/N=C/c1ccc2c(c1)CCc1c-2nnn1-c1ccc(OC(F)(F)F)cc1 [C-43, 1-(2-nitrophenyl)-3-[[3-[4-(trifluoromethoxy)phenyl]-5,6-dihydro-4H-benzo[e]benzotriazol-7-ylidene]methylimino]thiourea]
≥ 75%: mortality at 800 ppm [1] | mortality at 2500 ppm [2, 13]

Cc1cccc(C)c1NC(=S)N/N=C/c1ccc2c(ccc3c2ncn3-c2ccc(C(F)(F)F)cc2)c1 [C-86, 1-(2,6-dimethylphenyl)-3-[(E)-[3-[4-(trifluoromethyl)phenyl]benzo[e]benzimidazol-7-yl]methyleneamino]thiourea]
≥ 75%: mortality at 500 ppm [3] | mortality at 500 ppm [4, 14] | mortality at 800 ppm [5] | mortality at 800 ppm [1] | mortality at 300 ppm [6, 15] | mortality at 2500 ppm [2, 13] | mortality at 800 ppm [7, 16] | mortality at 800 ppm [8, 16] | mortality at 800 ppm [9, 16]

Cc1ccccc1NC(=S)N/N=C/c1ccc2c(c1)CCc1c-2nnn1-c1ccc(OC(F)(F)F)cc1 [C-34, 1-(o-tolyl)-3-[[3-[4-(trifluoromethoxy)phenyl]-5,8-dihydro-4H-benzo[e]benzotriazol-7-ylidene]methylimino] thiourea]
≥ 75%: mortality at 500 ppm [10] | mortality at 800 ppm [9, 16]

Cc1ccccc1NC(=S)N(C)/N=C/c1ccc2c(ccc3c2ncn3-c2ccc(OC(F)(F)F)cc2)c1 [C-87, 1-methyl-3-(o-tolyl)-1-[(E)-[3-[4-(trifluoromethoxy)phenyl]benzo[e]benzimidazol-7-yl]methyleneamino]thiourea]
≥ 75%: mortality at 500 ppm [4, 14] | mortality at 800 ppm [5] | mortality at 500 ppm [10] | mortality at 800 ppm [7, 16] | mortality at 800 ppm [9, 16]

CC(OC(=O)Nc1ccc2c(ccc3c2ncn3-c2ccc(OC(F)(F)F)cc2)c1)c1ccc(Cl)cn1 (stereo not shown) [C-56, 1-(5-chloro-2-pyridyl)ethyl N-[3-[4-(trifluoromethoxy)phenyl]benzo[e]benzimidazol-7-yl]carbamate]
≥ 75%: mortality at 500 ppm ([4]; 72 h) | mortality at 800 ppm [5] | mortality at 300 ppm [6] | mortality at 2500 ppm [2] | mortality at 800 ppm [7] | mortality at 800 ppm [8] | mortality at 800 ppm [9]

Cc1cccc(C)c1NC(=S)N/N=C/c1ccc2c(ccc3c2ncn3-c2ccc(OC(F)(F)F)cc2)c1 [C-1, 1-(2,6-dimethylphenyl)-3-[(E)-[3-[4-(trifluoromethoxy)phenyl]benzo[e]benzimidazol-7-yl]methyleneamino]thiourea]
≥ 75%: mortality at 500 ppm [3] | mortality at 500 ppm [4, 14] | mortality at 800 ppm [5] | mortality at 800 ppm [1] | mortality at 300 ppm [6, 15] | mortality at 300 ppm [11] | mortality at 800 ppm [7, 16] | mortality at 800 ppm [8, 16] | mortality at 800 ppm [9, 16]

CC(C)c1ccccc1N1CCSC1=N/N=C/c1ccc2c(ccc3c2ncn3-c2ccc(OC(F)(F)F)cc2)c1 (stereo in doubt) [C-53, (E)-3-(2-isopropylphenyl)-N-[(E)-[3-[4-(trifluoromethoxy)phenyl]benzo[e]benzimidazol-7-yl]methyleneamino] thiazolidin-2-imine]
≥ 75%: mortality at 500 ppm [3] | mortality at 500 ppm [4, 14] | mortality at 800 ppm [5] | mortality at 300 ppm [6, 15] | mortality at 2500 ppm [2, 13] | mortality at 300 ppm [12] | mortality at 800 ppm [7, 16] | mortality at 800 ppm [8, 16] | mortality at 800 ppm [9, 16]
